Patent publication US12545637B2, “Extrahepatic targeted cationic lipid compound with high efficiency and low toxicity and its composition” (BEIJING YOUCARE KECHUANG PHARMACEUTICAL TECHNOLOGY CO., LTD., priority 2023, dated 2026)

Tests used:
[1] = Particle size and polydispersity index (PDI) of lipid nanoparticles by dynamic light scattering; type: physicochemical
Procedure: The particle size and polydispersity index (PDI) were determined by dynamic light scattering using Malvern laser particle size analyzer.
10 μL of the liposome solution was weighed, diluted to 1 mL with RNase-free deionized water, and added to the sample pool. Each sample was measured in triplicate. The measurement conditions were: […] scattering angle, and 25° C.

[2] = Detection of encapsulation efficiency, drug loading concentration and total RNA concentration (RiboGreen); type: physicochemical
Procedure, shortened: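 LNP samples were diluted in 1×TE to approximately […], then mixed with 1×TE and 0.1% Triton X-100 buffers. After 10 minutes at 37 °C, RiboGreen (1:200) was added and fluorescence read against an mRNA standard, giving encapsulation efficiency, drug loading concentration and total RNA concentration.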

[3] = tested on: female BALB/C mice; test: In vivo imaging in mice of Fluc-mRNA LNP formulations (mRNA expression and duration)
Procedure: The LNP formulation (prepared according to Example 4) containing […] Fluc-mRNA was injected intramuscularly into female BALB/C mice aged 4-6 weeks and weighed 17-19 g, and the mice were intraperitoneally injected with fluorescent imaging substrate at specific time points after administration (6h, 24 h, 48h and 7d), where the mice were allowed to free move for 5 minutes, and then the average radiation intensity (corresponding to fluorescence expression intensity) of the protein expression of the mRNA carried by the LNP in the mice was detected by the IVIS Spectrum small animal in vivo imaging system.

[4] = tested on: 293T cells; test: Fluorescent detection of Fluc-mRNA (cell transfection efficiency of LNP formulations); type: cell-based
[5] = LNP formulation prepared from the cationic lipid

SMILES: CCCCCCCCC(CCCCCCCC)OC(=O)CCCCCN(CCO)CCN(CCO)CCCCCC(=O)OC(CCCCCCCC)CCCCCCCC [YK-401, di(heptadecan-9-yl) 6,6′-(ethane-1,2-diyl-bis((2-hydroxyethyl)azanediyl))dihexanoate]
- PDI ([1]; LNP formulation of the cationic lipid, 25° C.): 17.7%
- Particle size ([1]; LNP formulation of the cationic lipid/DSPC/cholesterol/DMG-PEG2000 49:10:39.5:1.5, 25° C.): 152 nm
- Drug loading concentration [2, 5]: 37.16 µg/mL
- Encapsulation efficiency [2, 5]: 83.6%
- Total RNA concentration [2, 5]: 41.71 µg/mL
- encapsulation efficiency higher than ALC-0315 ([2]; difference vs ALC-0315): 20.3%
- encapsulation efficiency higher than HIMA ([2]; difference vs HIMA (HHMA)): 23.4%
- encapsulation efficiency higher than SM-102 ([2]; difference vs SM-102): 20.7%
- encapsulation efficiency higher than YK-009 ([2]; difference vs YK-009): 20.2%
- encapsulation efficiency higher than compound 21 ([2]; difference vs compound 21): 25.6%
- encapsulation efficiency higher than compound 23 ([2]; difference vs compound 23): 27.4%
- drug loading concentration, times that of ALC-0315 ([2]; ratio vs ALC-0315): 1.38
- total RNA concentration, times that of ALC-0315 ([2]; ratio vs ALC-0315): 1.10
- drug loading concentration, times that of HIMA ([2]; ratio vs HIMA (HHMA)): 1.14
- total RNA concentration, times that of HIMA ([2]; ratio vs HIMA (HHMA)): 1.14
- drug loading concentration, times that of SM-102 ([2]; ratio vs SM-102): 1.40
- total RNA concentration, times that of SM-102 ([2]; ratio vs SM-102): 1.16
- drug loading concentration, times that of YK-009 ([2]; ratio vs YK-009): 1.35
- total RNA concentration, times that of YK-009 ([2]; ratio vs YK-009): 1.08
- drug loading concentration, times that of compound 21 ([2]; ratio vs compound 21): 1.69
- total RNA concentration, times that of compound 21 ([2]; ratio vs compound 21): 1.44
- drug loading concentration, times that of compound 23 ([2]; ratio vs compound 23): 1.86
- total RNA concentration, times that of compound 23 ([2]; ratio vs compound 23): 1.34
- average radiation intensity, times that of ALC-0315 ([3]; 6 h): 1.85
- average radiation intensity, times that of HHMA ([3]; 6 h): 2.36
- average radiation intensity, times that of SM-102 ([3]; 6 h): 2.25
- average radiation intensity, times that of compound 21 ([3]; 6 h): 2.59
- average radiation intensity, times that of compound 23 ([3]; 6 h): 2.68
- expression amount in mice, times that of YK-415 ([3]; 6 h): 13.22
- expression amount in mice, times that of YK-417 ([3]; 6 h): 25.75
- mRNA expression in mice, times that of YK-411 ([3]; 6 h): 266.26
- average radiation intensity, times that of ALC-0315 ([3]; 24 h): 4.25
- average radiation intensity, times that of HHMA ([3]; 24 h): 6.72
- average radiation intensity, times that of SM-102 ([3]; 24 h): 6.53
- average radiation intensity, times that of compound 21 ([3]; 24 h): 7.26
- average radiation intensity, times that of compound 23 ([3]; 24 h): 7.98
- expression amount in mice, times that of YK-415 ([3]; 24 h): 12.50
- expression amount in mice, times that of YK-417 ([3]; 24 h): 40.34
- mRNA expression in mice, times that of YK-411 ([3]; 24 h): 398.73
- average radiation intensity, times that of ALC-0315 ([3]; 48 h): 9.79
- average radiation intensity, times that of HHMA ([3]; 48 h): 11.79
- average radiation intensity, times that of SM-102 ([3]; 48 h): 11.96
- average radiation intensity, times that of compound 21 ([3]; 48 h): 12.46
- average radiation intensity, times that of compound 23 ([3]; 48 h): 11.94
- expression amount in mice, times that of YK-415 ([3]; 48 h): 24.89
- expression amount in mice, times that of YK-417 ([3]; 48 h): 55.79
- mRNA expression in mice, times that of YK-411 ([3]; 48 h): 403.10
- average radiation intensity, times that of ALC-0315 ([3]; 7 d): 1.50
- average radiation intensity, times that of HHMA ([3]; 7 d): 1.76
- average radiation intensity, times that of SM-102 ([3]; 7 d): 1.56
- average radiation intensity, times that of compound 21 ([3]; 7 d): 1.65
- average radiation intensity, times that of compound 23 ([3]; 7 d): 1.72
- expression amount in mice, times that of YK-415 ([3]; 7 d): 2.60
- expression amount in mice, times that of YK-417 ([3]; 7 d): 4.60
- mRNA expression in mice, times that of YK-411 ([3]; 7 d): 21.90
- average radiation intensity, 6 h ([3]; Fluc-mRNA LNP intramuscular, 6 h after administration): 1557640
- average radiation intensity, 24 h ([3]; Fluc-mRNA LNP intramuscular, 24 h after administration): 806240
- average radiation intensity, 48 h ([3]; Fluc-mRNA LNP intramuscular, 48 h after administration): 393020
- average radiation intensity, 7 d ([3]; Fluc-mRNA LNP intramuscular, 7 d after administration): 10512
- RLU value, times that of ALC-0315 ([4]; ratio vs ALC-0315): 2.56
- RLU value, times that of HHMA ([4]; ratio vs HHMA): 2.70
- RLU value, times that of Lipofectamine 3000 ([4]; ratio vs Lipofectamine 3000): 4.67
- RLU value, times that of YK-009 ([4]; ratio vs YK-009): 1.09
- RLU value, times that of YK-405 ([4]; ratio vs YK-405): 1.75
- RLU value, times that of YK-406 ([4]; ratio vs YK-406): 71.69
- RLU value, times that of YK-408 ([4]; ratio vs YK-408): 3.81
- RLU value, times that of YK-409 ([4]; ratio vs YK-409): 8.37
- RLU value, times that of YK-410 ([4]; ratio vs YK-410): 13.75
- cell transfection efficiency, times that of YK-412 ([4]; ratio vs YK-412): 1.66
- cell transfection efficiency, times that of YK-413 ([4]; ratio vs YK-413): 4.07
- cell transfection efficiency, times that of YK-414 ([4]; ratio vs YK-414): 12.63
- cell transfection efficiency, times that of YK-416 ([4]; ratio vs YK-416): 1.41
- cell transfection efficiency, times that of YK-419 ([4]; ratio vs YK-419): 1.77
- cell transfection efficiency, times that of YK-420 ([4]; ratio vs YK-420): 1.40
- cell transfection efficiency, times that of YK-421 ([4]; ratio vs YK-421): 12.02
